Laboratory results published in patent US20260200890A1, “ADAR1 INHIBITORS AND METHODS OF USING THE SAME” (AVAMMUNE THERAPEUTICS INC., priority 2022, published 2026).

Molecular target: T1, ADAR1 (Homo sapiens, UniProt P55265)
T1 construct: endogenous in cells; host or cells: p110 KO A549 dual cells
T1 sequence (P55265 1-1226): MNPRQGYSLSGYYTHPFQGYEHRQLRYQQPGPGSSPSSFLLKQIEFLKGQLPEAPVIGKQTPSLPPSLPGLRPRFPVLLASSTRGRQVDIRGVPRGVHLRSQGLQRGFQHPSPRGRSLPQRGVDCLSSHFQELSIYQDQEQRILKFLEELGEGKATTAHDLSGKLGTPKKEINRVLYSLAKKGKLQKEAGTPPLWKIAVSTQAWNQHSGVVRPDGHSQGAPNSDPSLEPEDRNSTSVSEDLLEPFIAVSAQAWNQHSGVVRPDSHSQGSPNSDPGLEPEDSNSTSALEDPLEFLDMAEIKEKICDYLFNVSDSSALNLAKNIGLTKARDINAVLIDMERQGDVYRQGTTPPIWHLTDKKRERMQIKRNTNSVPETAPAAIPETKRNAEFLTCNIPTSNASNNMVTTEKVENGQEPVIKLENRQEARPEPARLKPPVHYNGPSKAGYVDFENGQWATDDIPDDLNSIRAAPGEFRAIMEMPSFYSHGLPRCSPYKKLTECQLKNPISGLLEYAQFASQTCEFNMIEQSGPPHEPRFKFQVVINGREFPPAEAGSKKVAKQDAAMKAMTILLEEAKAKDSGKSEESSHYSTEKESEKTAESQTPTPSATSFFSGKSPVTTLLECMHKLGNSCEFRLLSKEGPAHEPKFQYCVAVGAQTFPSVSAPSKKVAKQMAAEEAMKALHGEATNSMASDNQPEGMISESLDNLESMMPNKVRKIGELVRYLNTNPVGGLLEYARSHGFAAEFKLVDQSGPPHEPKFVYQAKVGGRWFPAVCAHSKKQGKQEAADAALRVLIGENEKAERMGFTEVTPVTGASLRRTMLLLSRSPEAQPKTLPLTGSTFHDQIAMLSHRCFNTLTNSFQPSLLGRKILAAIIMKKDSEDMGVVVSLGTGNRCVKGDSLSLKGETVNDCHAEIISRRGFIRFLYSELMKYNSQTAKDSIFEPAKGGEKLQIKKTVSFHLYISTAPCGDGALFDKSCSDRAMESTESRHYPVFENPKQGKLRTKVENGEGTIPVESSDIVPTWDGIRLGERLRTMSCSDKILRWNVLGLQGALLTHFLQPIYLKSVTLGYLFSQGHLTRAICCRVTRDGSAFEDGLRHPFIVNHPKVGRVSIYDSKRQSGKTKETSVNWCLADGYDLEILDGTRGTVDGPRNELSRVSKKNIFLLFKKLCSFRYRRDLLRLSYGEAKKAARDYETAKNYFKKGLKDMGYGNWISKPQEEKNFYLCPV
Assay: ADAR1 Inhibition Assay (IFN fold-induction, Quanti-Luc luminescence, p110 KO A549 dual cells)
Format: cell-based
Conditions: IFN fold-induction vs DMSO, 24 and 48 h
Procedure, shortened: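 EC50 derived from IFN fold-induction, calculated as sample RLU over average DMSO RLU. Luminescence measured by Quanti-Luc on samples taken after 24 and 48 h of compound exposure (1% DMSO final, 37 °C, 5% CO2). Cells were p110 KO A549 dual, seeded at 20,000 per well in supplemented DMEM.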

SMILES | EC50
CCOC(=O)c1cc(-c2ccccc2)sc1NC(=O)c1nn(-c2cccc(NS(C)(=O)=O)c2)c(=O)cc1C [Compound 273] | > 100 µM
CCOC(=O)c1cc(-c2ccccc2)sc1NC(=O)NS(=O)(=O)c1cccc(NS(C)(=O)=O)c1 [Compound 275] | > 100 µM
CCOC(=O)c1cc(-c2ccccc2)sc1NC(=O)CCOc1cccc(NS(C)(=O)=O)c1 [Compound 276] | > 100 µM
CCOC(=O)c1ccncc1NC(=O)COC(=O)c1cccc(NS(C)(=O)=O)c1 [Compound 277] | > 100 µM
CCOC(=O)c1cc(C2=CCN(C)CC2)sc1NC(=O)COC(=O)c1cccc(NS(C)(=O)=O)c1 [Compound 278] | > 100 µM
CCOC(=O)c1cc(-c2ccccc2)sc1N1CCN(C(=O)c2cccc(NS(C)(=O)=O)c2)CC1 [Compound 279] | > 100 µM
CCOC(=O)c1cc(-c2ccccc2)sc1NC(=O)CN1CCN(c2cccc(NS(C)(=O)=O)c2)CC1 [Compound 280] | > 100 µM
CS(=O)(=O)Nc1cccc(C(=O)NNC(=O)c2csc(-c3ccccc3)c2)c1 [Compound 281] | > 100 µM
CCOC(=O)c1cc(-c2ccccc2)sc1NC(=O)CONC(=O)c1cccc(NS(C)(=O)=O)c1 [Compound 282] | > 100 µM
CCOC(=O)c1cc(-c2ccccc2)sc1NC(=O)CO/N=C/c1cccc(NS(C)(=O)=O)c1 [Compound 283] | > 100 µM
C=CC(=O)Nc1cccc(C(=O)OCC(=O)Nc2sc(-c3ccccc3)cc2C(=O)OCC)c1 [Compound 284] | > 100 µM
CCOC(=O)c1cc(-c2ccccc2)sc1NC(=O)C1CCC(NC(=O)c2cccc(NS(C)(=O)=O)c2)CC1 (stereo not shown) [Compound 285] | > 100 µM
CS(=O)(=O)Nc1cccc(-c2nc3sc(-c4ccccc4)cc3c(=O)[nH]2)c1 [Compound 286] | > 100 µM
CCOC(=O)c1c(NC(=O)COC(=O)c2cccc(NS(C)(=O)=O)c2)sc(N2CCOCC2)c1C [Compound 287] | > 100 µM
CCOC(=O)c1cc(-c2ccccc2)sc1NC(=O)Cn1nc(-c2cccc(NS(C)(=O)=O)c2)oc1=O [Compound 288] | > 100 µM
CS(=O)(=O)Nc1cccc(C(=O)OCCNC(=O)c2cc(-c3ccccc3)sc2N)c1 [Compound 289] | > 100 µM
CCOC(=O)c1cc(-c2ccccc2)sc1NC(=O)OCc1nnc(-c2cccc(NS(C)(=O)=O)c2)o1 [Compound 290] | > 100 µM
CCOC(=O)c1cc(-c2ccccc2)sc1NC(=O)CN1C(=O)COc2ccc(NS(C)(=O)=O)cc21 [Compound 291] | > 100 µM
CCOC(=O)c1cc(C2CCNCC2)sc1NC(=O)COC(=O)c1cccc(NS(C)(=O)=O)c1 [Compound 295] | > 100 µM
CCOC(=O)c1cc(-c2ccccc2)sc1NC(=O)COC(=O)c1cccc(NS(=O)(=O)c2ccn(C)n2)c1 [Compound 296] | ≤ 25 µM

SMILES | EC50
CCOC(=O)c1cc(-c2ccccc2)sc1NC(=O)CS(=O)(=O)c1cccc(NS(C)(=O)=O)c1 [Compound 297] | > 100 µM
CCOC(=O)c1cnc(NC(=O)COC(=O)c2cccc(NS(C)(=O)=O)c2)nc1-c1ccccc1 [Compound 298] | > 100 µM
CCOC(=O)c1cc(-c2ccccc2)sc1NC(=O)COC(=O)c1cccc(B(O)O)c1 [Compound 299] | > 100 µM
CCOC(=O)c1cc(-c2ccccc2)sc1NC(=O)COc1cc(C(F)(F)F)nc(NS(C)(=O)=O)n1 [Compound 300] | > 100 µM
CCOC(=O)c1cc(-c2ccccc2)oc1NC(=O)COC(=O)c1cccc(NS(C)(=O)=O)c1 [Compound 301] | 50 to 100 µM
CCOC(=O)c1cc(-c2ccccc2)sc1NC(=O)CCC(=O)c1cccc(NS(C)(=O)=O)c1 [Compound 303] | 50 to 100 µM
CCOC(=O)c1cc(-c2ccc3c(cnn3C)c2)sc1NC(=O)COC(=O)c1cccc(NS(C)(=O)=O)c1 [Compound 305] | 50 to 100 µM
COC(=O)c1sccc1NC(=O)COC(=O)c1cccc(NS(C)(=O)=O)c1 [Compound 306] | > 100 µM
CCOC(=O)c1cc(-c2ccccc2)sc1S(=O)(=O)N1CCN(S(C)(=O)=O)CC1 [Compound 307] | > 100 µM
CCOC(=O)c1cc(-c2ccccc2)sc1S(=O)(=O)N1CCN(C(=O)c2cccc(NS(C)(=O)=O)c2)CC1 [Compound 309] | 50 to 100 µM
COC(=O)c1sc(-c2ccccc2)cc1NC(=O)COC(=O)c1cccc(NS(C)(=O)=O)c1 [Compound 311] | ≤ 25 µM
CCOC(=O)c1cc(-c2ccccc2)sc1NC(=O)CC(=O)Nc1cccc(NS(C)(=O)=O)c1 [Compound 312] | 50 to 100 µM
CCOC(=O)c1cc(-c2ccccc2)sc1-c1coc(/C=N\c2cccc(NS(C)(=O)=O)c2)c1 [Compound 313] | > 100 µM
CCOC(=O)c1cc(-c2ccccc2)sc1NC(=O)COC(=O)c1cccc(Br)c1 [Compound 314] | 50 to 100 µM
CCOC(=O)c1cc(Sc2ccccc2)sc1NC(=O)COC(=O)c1cccc(NS(C)(=O)=O)c1 [Compound 315] | > 100 µM
CCOC(=O)c1cc(-c2ccc3c(c2)OCO3)sc1NC(=O)COC(=O)c1cccc(NS(C)(=O)=O)c1 [Compound 316] | > 100 µM
CCOC(=O)c1cc(-c2ccc3c(c2)OCCO3)sc1NC(=O)COC(=O)c1cccc(NS(C)(=O)=O)c1 [Compound 317] | > 100 µM
COC(=O)c1sc(-c2ccccc2)cc1NC(=O)COC(=O)c1cccc(S(N)(=O)=O)c1 [Compound 318] | 50 to 100 µM
CCOC(=O)c1cc(-c2ccccc2)sc1NC(=O)Cn1ccc(=O)c(O)c1C [Compound 319] | > 100 µM
COC(=O)c1scc(-c2ccccc2)c1NC(=O)COC(=O)c1cccc(NS(C)(=O)=O)c1 [Compound 320] | > 100 µM

SMILES | EC50
CCOC(=O)c1cc(-c2ccccc2)sc1NC(=O)COC(=O)c1cccc(NS(=O)(=O)c2c(C)noc2C)c1 [Compound 322] | > 100 µM
CCOC(=O)c1cc(-c2ccccc2)sc1NC(=O)c1cccc(NC(=O)c2cccc(NS(C)(=O)=O)c2)c1 [Compound 323] | > 100 µM
CCOC(=O)c1cc(-c2ccccc2)sc1NC(=O)CCSc1cccc(NS(C)(=O)=O)c1 [Compound 324] | > 100 µM
COC(=O)c1sc(-c2ccccc2)cc1NC(=O)CNC(=O)c1cccc(NS(C)(=O)=O)c1 [Compound 332] | > 100 µM
CCOC(=O)c1cc(-c2ccccc2)sc1NC(=O)C1CCN(C(=O)Cc2cccc(NS(C)(=O)=O)c2)C1 (stereo not shown) [Compound 333] | 50 to 100 µM
CCOC(=O)c1cc(-c2ccccc2)sc1NC(=O)CN1CCN(C(=O)Cc2cccc(NS(C)(=O)=O)c2)CC1 [Compound 334] | > 100 µM
CCOC(=O)c1cc(-c2ccc3c(cnn3C)c2)sc1NC(=O)CNC(=O)Cc1cccc(NS(C)(=O)=O)c1 [Compound 335] | > 100 µM
CCOC(=O)c1cc(-c2ccccc2)sc1NC(=O)CN(C)C(=O)Cc1cccc(NS(C)(=O)=O)c1 [Compound 336] | > 100 µM
CCOC(=O)c1cc(-c2ccccc2)sc1NC(=O)C(C)NC(=O)Cc1cccc(NS(C)(=O)=O)c1 (stereo not shown) [Compound 337] | > 100 µM
CCOC(=O)c1cc(-c2ccccc2)sc1NC(=O)CNC(=O)Cc1cccc(S(C)(=N)=O)c1 (stereo not shown) [Compound 338] | > 100 µM
CCOC(=O)c1cc(-c2ccccc2)sc1NC(=O)CNC(=O)c1ccc2ccn(S(C)(=O)=O)c2c1 [Compound 339] | > 100 µM
CCOC(=O)c1cc(-c2ccccc2)sc1NC(=O)COC(=O)c1ccc2ccn(S(C)(=O)=O)c2c1 [Compound 340] | > 100 µM
CCOC(=O)c1cc(-c2ccccc2)sc1NC(=O)CNC(=O)c1cccc(CNS(C)(=O)=O)c1 [Compound 342] | > 100 µM
CCOC(=O)c1cc(P(=O)(OCC)OCC)sc1NC(=O)COC(=O)c1cccc(NS(C)(=O)=O)c1 [Compound 345] | > 100 µM
CCOC(=O)c1cc(NC(=O)COC(=O)c2cccc(NS(C)(=O)=O)c2)nn1-c1ccccc1 [Compound 347] | > 100 µM
CCOC(=O)c1cc(-c2ccccc2)sc1NC(=O)CNC(=O)Cc1cccc(P(=O)(OCC)OCC)c1 [Compound 348] | > 100 µM
CCOC(=O)c1cc(-c2ccccc2)[nH]c1NC(=O)COC(=O)c1cccc(NS(C)(=O)=O)c1 [Compound 352] | > 100 µM
CCOC(=O)c1cc(-c2ccccc2)sc1NC(=O)Cn1cc(CN(c2cccc(N)c2)S(C)(=O)=O)nn1 [Compound 353] | > 100 µM
